Source: paper PMC9145702, “Design, Synthesis and Evaluation of Fused Bicyclo[2.2.2]octene as a Potential Core Scaffold for the Non-Covalent Inhibitors of SARS-CoV-2 3CL^pro Main Protease” (Pharmaceuticals, 2022)
Like-named read-outs stand apart in the source and are kept apart here.

Experiments:
3CL^pro = tested on: 3CL^pro; parameters: method as in PMID 33817567; conditions: compared with 11a; read-out: inhibition activity; cited from earlier work
[1] = target: SARS-CoV-2 3CL^pro main protease (Severe acute respiratory syndrome coronavirus 2, UniProt P0DTD1); experiment: FRET-based assay of SARS-CoV-2 3CL^pro main protease inhibition activity; assay type: biochemical; conditions: for screening result after accounting for effect on measured fluorescence: 64 μM, difference between 3CL(+) and 3CL(-) fluorescence; for first screening result (hit candidate): first FRET screening at 64 μM of each compound, before accounting for compound effect on fluorescence

SMILES	melting point	further results
O=C(NN1C(=O)C2C(C1=O)C1(c3ccccc3)C=CC2(NC(=O)c2ccccc2)C2C(=O)N(NC(=O)c3ccncc3)C(=O)C21)c1ccncc1 (stereo not drawn) [11c, N-[8-Phenyl-2,3,3a,4a,5,6,7,7a,8,8a-decahydro-1,3,5,7-tetraoxo-2,6-bis(4-pyridylcarboamino)-4,8-ethenobenzo[1,2-c:4,5-c′]dipyrrol-4(1H)-yl]benzamide]	289 to 293 °C	–
O=C(NN1C(=O)C2C(C1=O)C1(c3cccs3)C=CC2(NC(=O)c2ccccc2)C2C(=O)N(NC(=O)c3ccncc3)C(=O)C21)c1ccncc1 (stereo not drawn) [11h, N-[2,3,3a,4a,5,6,7,7a,8,8a-Decahydro-1,3,5,7-tetraoxo-2,6-bis(4-pyridylcarboamino)-8-(2-thienyl)-4,8-ethenobenzo[1,2-c:4,5-c′]dipyrrol-4(1H)-yl]benzamide]	310 to 312 °C	–
C/C(=N\NC(=O)c1cccnc1)C1=CC2(NC(=O)c3ccccc3)C3C(=O)N(NC(=O)c4cccnc4)C(=O)C3C1(C)C1C(=O)N(NC(=O)c3cccnc3)C(=O)C12 (stereo not drawn) [11o, N-[2,3,3a,4a,5,6,7,7a,8,8a-Decahydro-8-methyl-1,3,5,7-tetraoxo-2,6-bis(3-pyridyl-carboamino)-9-(1-(N-[3-pyridylcarbo]hydrazonyl)eth-1-yl)-4,8-ethenobenzo[1,2-c:4,5-c′]dipyrrol-4(1H)-yl]benzamide]	284 to 286 °C	–
O=C(NN1C(=O)C2C(C1=O)C1(c3cccs3)C=CC2(NC(=O)c2ccccc2)C2C(=O)N(NC(=O)c3cccnc3)C(=O)C21)c1cccnc1 (stereo not drawn) [11g, N-[2,3,3a,4a,5,6,7,7a,8,8a-Decahydro-1,3,5,7-tetraoxo-2,6-bis(3-pyridylcarboamino)-8-(2-thienyl)-4,8-ethenobenzo[1,2-c:4,5-c′]dipyrrol-4(1H)-yl]benzamide]	259 to 262 °C (dec.)	–
COc1ccc(C2=CC3(NC(=O)c4ccccc4)C4C(=O)N(NC(=O)c5ccncc5)C(=O)C4C2(C)C2C(=O)N(NC(=O)c4ccncc4)C(=O)C23)cc1 (stereo not drawn) [11n, N-[2,3,3a,4a,5,6,7,7a,8,8a-Decahydro-8-methyl-9-(4-methoxyphenyl)-1,3,5,7-tetraoxo-2,6-bis(4-pyridylcarboamino)-4,8-ethenobenzo[1,2-c:4,5-c′]dipyrrol-4(1H)-yl]benzamide]	387 to 390 °C (dec.)	–
Cc1c(O)cccc1C(=O)N[C@@H](CSc1ccccc1)[C@H](O)CN1C[C@H]2CCCC[C@H]2C[C@H]1C(=O)NC(C)(C)C [nelfinavir]	–	IC50 (3CL^pro): ~40 µM
O=C(NN1C(=O)C2C(C1=O)C1(c3ccco3)C=CC2(NC(=O)c2ccccc2)C2C(=O)N(NC(=O)c3cccnc3)C(=O)C21)c1cccnc1 (stereo not drawn) [11j, N-[8-(2-Furyl)-2,3,3a,4a,5,6,7,7a,8,8a-decahydro-1,3,5,7-tetraoxo-2,6-bis(3-pyridylcarboamino)-4,8-ethenobenzo[1,2-c:4,5-c′]dipyrrol-4(1H)-yl]benzamide]	272 to 276 °C	–
COc1ccc(C2=CC3(NC(=O)c4ccccc4)C4C(=O)N(NC(=O)c5cccnc5)C(=O)C4C2(C)C2C(=O)N(NC(=O)c4cccnc4)C(=O)C23)cc1 (stereo not drawn) [11m, N-[2,3,3a,4a,5,6,7,7a,8,8a-Decahydro-8-methyl-9-(4-methoxyphenyl)-1,3,5,7-tetraoxo-2,6-bis(3-pyridylcarboamino)-4,8-ethenobenzo[1,2-c:4,5-c′]dipyrrol-4(1H)-yl]benzamide]	365 to 369 °C (dec.)	–
CC1=CC2(c3ccccc3)C3C(=O)N(NC(=O)c4ccccn4)C(=O)C3C1(NC(=O)c1ccccc1)C1C(=O)N(NC(=O)c3ccccn3)C(=O)C12 (stereo not drawn) [11d, N-[8-Phenyl-2,3,3a,4a,5,6,7,7a,8,8a-decahydro-10-methyl-1,3,5,7-tetraoxo-2,6-bis(2-pyridylcarboamino)-4,8-ethenobenzo[1,2-c:4,5-c′]dipyrrol-4(1H)-yl]benzamide]	271 to 274 °C	–
O=C(NN1C(=O)C2C(C1=O)C1(c3ccco3)C=CC2(NC(=O)c2ccccc2)C2C(=O)N(NC(=O)c3ccncc3)C(=O)C21)c1ccncc1 (stereo not drawn) [11k, N-[8-(2-Furyl)-2,3,3a,4a,5,6,7,7a,8,8a-decahydro-1,3,5,7-tetraoxo-2,6-bis(4-pyridylcarboamino)-4,8-ethenobenzo[1,2-c:4,5-c′]dipyrrol-4(1H)-yl]benzamide]	309 to 311 °C	–
COc1ccc(C2=CC3(NC(=O)c4ccccc4)C4C(=O)N(NC(=O)c5ccccn5)C(=O)C4C2(C)C2C(=O)N(NC(=O)c4ccccn4)C(=O)C23)cc1 (stereo not drawn) [11l, N-[2,3,3a,4a,5,6,7,7a,8,8a-Decahydro-8-methyl-9-(4-methoxyphenyl)-1,3,5,7-tetraoxo-2,6-bis(2-pyridylcarboamino)-4,8-ethenobenzo[1,2-c:4,5-c′]dipyrrol-4(1H)-yl]benzamide]	298 to 303 °C (dec.)	–
CC1=CC2(c3ccccc3)C3C(=O)N(NC(=O)c4cccnc4)C(=O)C3C1(NC(=O)c1ccccc1)C1C(=O)N(NC(=O)c3cccnc3)C(=O)C12 (stereo not drawn) [11e, N-[8-Phenyl-2,3,3a,4a,5,6,7,7a,8,8a-decahydro-10-methyl-1,3,5,7-tetraoxo-2,6-bis(3-pyridylcarboamino)-4,8-ethenobenzo[1,2-c:4,5-c′]dipyrrol-4(1H)-yl]benzamide]	345 to 347 °C (dec.)	IC50 [1]: ~200 µM; screening result after accounting for effect on measured fluorescence [1]: remained as hit candidates; first screening result (hit candidate) [1]: candidate hit compounds
O=C(NC12C=CC(c3ccccc3)(C3C(=O)N(NC(=O)c4ccccn4)C(=O)C31)C1C(=O)N(NC(=O)c3ccccn3)C(=O)C12)c1ccccc1 (stereo not drawn) [11a, N-[8-Phenyl-2,3,3a,4a,5,6,7,7a,8,8a-decahydro-1,3,5,7-tetraoxo-2,6-bis(2-pyridylcarboamino)-4,8-ethenobenzo[1,2-c:4,5-c′]dipyrrol-4(1H)-yl]benzamide]	263 to 265 °C	screening result after accounting for effect on measured fluorescence [1]: remained as hit candidates; IC50 ([1]; FRET assay, isolated SARS-CoV-2 3CL^pro, compound concentrations 200, 100, 50 and 25 μM): 102 µM; first screening result (hit candidate) [1]: candidate hit compounds
O=C(NC12C=CC(c3ccco3)(C3C(=O)N(NC(=O)c4ccccn4)C(=O)C31)C1C(=O)N(NC(=O)c3ccccn3)C(=O)C12)c1ccccc1 (stereo not drawn) [11i, N-[8-(2-Furyl)-2,3,3a,4a,5,6,7,7a,8,8a-decahydro-1,3,5,7-tetraoxo-2,6-bis(2-pyridylcarboamino)-4,8-ethenobenzo[1,2-c:4,5-c′]dipyrrol-4(1H)-yl]benzamide]	332 to 334 °C	first screening result (hit candidate) [1]: candidate hit compounds
O=C(NN1C(=O)C2C(C1=O)C1(c3ccccc3)C=CC2(NC(=O)c2ccccc2)C2C(=O)N(NC(=O)c3cccnc3)C(=O)C21)c1cccnc1 (stereo not drawn) [11b, N-[8-Phenyl-2,3,3a,4a,5,6,7,7a,8,8a-decahydro-1,3,5,7-tetraoxo-2,6-bis(3-pyridylcarboamino)-4,8-ethenobenzo[1,2-c:4,5-c′]dipyrrol-4(1H)-yl]benzamide]	278 to 282 °C	–
O=C(NC12C=CC(c3cccs3)(C3C(=O)N(NC(=O)c4ccccn4)C(=O)C31)C1C(=O)N(NC(=O)c3ccccn3)C(=O)C12)c1ccccc1 (stereo not drawn) [11f, N-[2,3,3a,4a,5,6,7,7a,8,8a-Decahydro-1,3,5,7-tetraoxo-2,6-bis(2-pyridylcarboamino)-8-(2-thienyl)-4,8-ethenobenzo[1,2-c:4,5-c′]dipyrrol-4(1H)-yl]benzamide]	288 to 291 °C (dec.)	first screening result (hit candidate) [1]: candidate hit compounds
